Laboratory results: ChEMBL document CHEMBL5046249, “Synthesis, biological evaluation and cellular localization study of fluorescent derivatives of Jiyuan Oridonin A” (Eur J Med Chem, 2022)

What was measured:
Format in all cases: functional, cell-based
MGC-803 = assay: Antiproliferative activity against human MGC-803 cells assessed as inhibition of cell growth measured after 72 hrs by SRB assay; settings: MGC-803, 72 h
SW1990 = assay: Antiproliferative activity against human SW1990 cells assessed as inhibition of cell growth measured after 72 hrs by SRB assay; settings: SW1990, 72 h
PC-3 = assay: Antiproliferative activity against human PC-3 cells assessed as inhibition of cell growth measured after 72 hrs by SRB assay; settings: PC-3, 72 h
TE-1 = assay: Antiproliferative activity against human TE-1 cells assessed as inhibition of cell growth measured after 72 hrs by SRB assay; settings: TE-1, 72 h
HGC-27 = assay: Antiproliferative activity against human HGC-27 cells assessed as inhibition of cell growth measured after 72 hrs by SRB assay; settings: HGC-27, 72 h

SMILES | IC50 (MGC-803) | IC50 (SW1990) | IC50 (PC-3) | IC50 (TE-1) | IC50 (HGC-27)
C=C1C(=O)[C@]23[C@H](O)[C@H]1C[C@H](O)[C@H]2[C@]12CCCC(C)(C)[C@H]1C[C@H]3O[C@H]2OCCCCCc1cn(CCCN2C(=O)c3cccc4c(N5CCCCC5)ccc(c34)C2=O)nn1 | 2430 nM | 3650 nM | 2490 nM | 4620 nM | 3260 nM
C=C1C(=O)[C@]23[C@H](O)[C@H]1C[C@H](O)[C@H]2[C@]12CCCC(C)(C)[C@H]1C[C@H]3O[C@H]2OCCCCc1cn(CCOCCOCCOCCN2C(=O)c3cccc4c(N5CCCCC5)ccc(c34)C2=O)nn1 | 3130 nM | 4350 nM | 1040 nM | 2430 nM | 2490 nM
[N-]=[N+]=NCCOCCN1C(=O)c2cccc3c(N4CCCCC4)ccc(c23)C1=O | > 32000 nM | > 32000 nM | > 32000 nM | > 32000 nM | > 32000 nM
[N-]=[N+]=NCCCN1C(=O)c2cccc3c(N4CCCCC4)ccc(c23)C1=O | > 32000 nM | > 32000 nM | > 32000 nM | > 32000 nM | > 32000 nM
C#CCCCCCCO[C@@H]1O[C@@H]2C[C@@H]3C(C)(C)CCC[C@]13[C@@H]1[C@@H](O)C[C@H]3C(=C)C(=O)[C@@]21[C@@H]3O | 1970 nM | 3260 nM | 2880 nM | 3180 nM | 3010 nM
C=C1C(=O)[C@]23[C@H](O)[C@H]1C[C@H](O)[C@H]2[C@]12CCCC(C)(C)[C@H]1C[C@H]3O[C@H]2OCCc1cn(CCCCCCN2C(=O)c3cccc4c(N5CCCCC5)ccc(c34)C2=O)nn1 | 1570 nM | 1410 nM | 790 nM | 4450 nM | 3090 nM
C=C1C(=O)[C@]23[C@H](O)[C@H]1C[C@H](O)[C@H]2[C@]12CCCC(C)(C)[C@H]1C[C@H]3O[C@H]2OCCCCc1cn(CCOCCN2C(=O)c3cccc4c(N5CCCCC5)ccc(c34)C2=O)nn1 | 3210 nM | 2250 nM | 1240 nM | 2700 nM | 1950 nM
C=C1C(=O)[C@]23[C@H](O)[C@H]1C[C@H](O)[C@H]2[C@]12CCCC(C)(C)[C@H]1C[C@H]3O[C@H]2OCCCCc1cn(CCOCCOCCN2C(=O)c3cccc4c(N5CCCCC5)ccc(c34)C2=O)nn1 | 2930 nM | 2160 nM | 1150 nM | 2260 nM | 1750 nM
[N-]=[N+]=NCCCCCCN1C(=O)c2cccc3c(N4CCCCC4)ccc(c23)C1=O | > 32000 nM | > 32000 nM | > 32000 nM | > 32000 nM | > 32000 nM
C#CCCCCO[C@@H]1O[C@@H]2C[C@@H]3C(C)(C)CCC[C@]13[C@@H]1[C@@H](O)C[C@H]3C(=C)C(=O)[C@@]21[C@@H]3O | 2550 nM | 3340 nM | 4320 nM | 5670 nM | 3000 nM
C=C1C(=O)[C@]23[C@H](O)[C@H]1C[C@H](O)[C@H]2[C@]12CCCC(C)(C)[C@H]1C[C@H]3O[C@H]2OCCCc1cn(CCOCCN2C(=O)c3cccc4c(N5CCCCC5)ccc(c34)C2=O)nn1 | 3830 nM | 2390 nM | 1410 nM | 2260 nM | 2160 nM
C=C1C(=O)[C@]23[C@H](O)[C@H]1C[C@H](O)[C@H]2[C@]12CCCC(C)(C)[C@H]1C[C@H]3O[C@H]2OCCCc1cn(CCCCCCN2C(=O)c3cccc4c(N5CCCCC5)ccc(c34)C2=O)nn1 | 910 nM | 1200 nM | 740 nM | 2970 nM | 3320 nM
C#CCCCCCO[C@@H]1O[C@@H]2C[C@@H]3C(C)(C)CCC[C@]13[C@@H]1[C@@H](O)C[C@H]3C(=C)C(=O)[C@@]21[C@@H]3O | 3150 nM | 2910 nM | 2450 nM | 2440 nM | 2890 nM
C=C1C(=O)[C@]23[C@H](O)[C@H]1C[C@H](O)[C@H]2[C@]12CCCC(C)(C)[C@H]1C[C@H]3O[C@H]2OCCCCCc1cn(CCN2C(=O)c3cccc4c(N5CCCCC5)ccc(c34)C2=O)nn1 | 2720 nM | 4630 nM | 2470 nM | 5360 nM | 4410 nM
C=C1C(=O)[C@]23[C@H](O)[C@H]1C[C@H](O)[C@H]2[C@]12CCCC(C)(C)[C@H]1C[C@H]3O[C@H]2OCCCCCCc1cn(CCOCCOCCN2C(=O)c3cccc4c(N5CCCCC5)ccc(c34)C2=O)nn1 | 3010 nM | 2820 nM | 970 nM | 1530 nM | 1880 nM
C#CCCO[C@@H]1O[C@@H]2C[C@@H]3C(C)(C)CCC[C@]13[C@@H]1[C@@H](O)C[C@H]3C(=C)C(=O)[C@@]21[C@@H]3O | 6360 nM | 4230 nM | 4250 nM | 7390 nM | 6480 nM
C=C1C(=O)[C@]23[C@H](O)[C@H]1C[C@H](O)[C@H]2[C@]12CCCC(C)(C)[C@H]1C[C@H]3O[C@H]2OCCCCCCc1cn(CCCCCN2C(=O)c3cccc4c(N5CCCCC5)ccc(c34)C2=O)nn1 | 4180 nM | 4590 nM | 3890 nM | 3450 nM | 2280 nM
[N-]=[N+]=NCCOCCOCCN1C(=O)c2cccc3c(N4CCCCC4)ccc(c23)C1=O | > 32000 nM | > 32000 nM | > 32000 nM | > 32000 nM | > 32000 nM
C=C1C(=O)[C@]23[C@H](O)[C@H]1C[C@H](O)[C@H]2[C@]12CCCC(C)(C)[C@H]1C[C@H]3O[C@H]2OCCCc1cn(CCCCCN2C(=O)c3cccc4c(N5CCCCC5)ccc(c34)C2=O)nn1 | 1530 nM | 1380 nM | 1670 nM | 3940 nM | 3310 nM
C=C1C(=O)[C@]23[C@H](O)[C@H]1C[C@H](O)[C@H]2[C@]12CCCC(C)(C)[C@H]1C[C@H]3O[C@H]2OCCCCCCc1cn(CCOCCOCCOCCN2C(=O)c3cccc4c(N5CCCCC5)ccc(c34)C2=O)nn1 | 3870 nM | 2640 nM | 1270 nM | 3080 nM | 1440 nM
C=C1C(=O)[C@]23[C@H](O)[C@H]1C[C@H](O)[C@H]2[C@]12CCCC(C)(C)[C@H]1C[C@H]3O[C@H]2OCCCCc1cn(CCCN2C(=O)c3cccc4c(N5CCCCC5)ccc(c34)C2=O)nn1 | 1200 nM | 3310 nM | 770 nM | 2640 nM | 6130 nM
C=C1C(=O)[C@]23[C@H](O)[C@H]1C[C@H](O)[C@H]2[C@]12CCCC(C)(C)[C@H]1C[C@H]3O[C@H]2OCCc1cn(CCCN2C(=O)c3cccc4c(N5CCCCC5)ccc(c34)C2=O)nn1 | 1970 nM | 970 nM | 800 nM | 3040 nM | 2290 nM
C#CCCCO[C@@H]1O[C@@H]2C[C@@H]3C(C)(C)CCC[C@]13[C@@H]1[C@@H](O)C[C@H]3C(=C)C(=O)[C@@]21[C@@H]3O | 2460 nM | 3220 nM | 5370 nM | 4230 nM | 2680 nM
C=C1C(=O)[C@]23[C@H](O)[C@H]1C[C@H](O)[C@H]2[C@]12CCCC(C)(C)[C@H]1C[C@H]3O[C@H]2OCCc1cn(CCN2C(=O)c3cccc4c(N5CCCCC5)ccc(c34)C2=O)nn1 | 960 nM | 880 nM | 2500 nM | 3340 nM | 2640 nM
C=C1C(=O)[C@]23[C@H](O)[C@H]1C[C@H](O)[C@H]2[C@]12CCCC(C)(C)[C@H]1C[C@H]3O[C@H]2OCCCc1cn(CCOCCOCCN2C(=O)c3cccc4c(N5CCCCC5)ccc(c34)C2=O)nn1 | 3450 nM | 1940 nM | 2170 nM | 3020 nM | 1250 nM
C=C1C(=O)[C@]23[C@H](O)[C@H]1C[C@H](O)[C@H]2[C@]12CCCC(C)(C)[C@H]1C[C@H]3O[C@H]2OCCCc1cn(CCN2C(=O)c3cccc4c(N5CCCCC5)ccc(c34)C2=O)nn1 | 1230 nM | 1360 nM | 470 nM | 4800 nM | 2970 nM
[N-]=[N+]=NCCCCCN1C(=O)c2cccc3c(N4CCCCC4)ccc(c23)C1=O | > 32000 nM | > 32000 nM | > 32000 nM | > 32000 nM | > 32000 nM
[N-]=[N+]=NCCCCN1C(=O)c2cccc3c(N4CCCCC4)ccc(c23)C1=O | > 32000 nM | > 32000 nM | > 32000 nM | > 32000 nM | > 32000 nM
C=C1C(=O)[C@]23[C@H](O)[C@H]1C[C@H](O)[C@H]2[C@]12CCCC(C)(C)[C@H]1C[C@H]3O[C@H]2OCCCCc1cn(CCCCCCN2C(=O)c3cccc4c(N5CCCCC5)ccc(c34)C2=O)nn1 | 2110 nM | 2870 nM | 2200 nM | 4330 nM | 2090 nM
C=C1C(=O)[C@]23[C@H](O)[C@H]1C[C@H](O)[C@H]2[C@]12CCCC(C)(C)[C@H]1C[C@H]3O[C@H]2OCCCCCc1cn(CCCCCCN2C(=O)c3cccc4c(N5CCCCC5)ccc(c34)C2=O)nn1 | 5880 nM | 5020 nM | 990 nM | 10100 nM | 2170 nM
